Measurements from paper PMC3118614 (Biomedical chromatography : BMC, 2010).
Where two headings read alike, the source gives them in different places.

Tests used:
[1] = ref Rowland et al., 2007; cited from earlier work
[2] = type: in vivo, olive baboons (Papio Anubis)

Structure (SMILES) | metabolites detected in human plasma (metabolic profile, in words) [1] | Cmax (maximum concentration) ([2]; in vivo, po, 5 mg/kg) [ng/mL] | Cmax (maximum concentration) ([2]; in vivo, po, 10 mg/kg) [ng/mL] | Cmax (maximum concentration) ([2]; in vivo, po, 400 mg) [ng/mL] | Cmax (maximum concentration) ([2]; in vivo, po, 800 mg) [ng/mL] | Cmax (maximum concentration) ([2]; baboon serum, single oral dose of NVP 5 mg/kg, solution formulation, n = 2, mean) [ng/mL] | ratio of the plasma level of 12-OHNVP and 4-CANVP ([2]; in vivo, 5 mg/kg) | ratio of the plasma level of 12-OHNVP and 4-CANVP ([2]; in vivo, 10 mg/kg)
Cc1cc(=O)[nH]c2c1NC(=O)c1cccnc1N2C1CC1 [2-OHNVP, 2-hydroxynevirapine] | major metabolites |  |  |  |  |  |  | 
Cc1c(O)cnc2c1NC(=O)c1cccnc1N2C1CC1 [3-OHNVP] | major metabolites | 11.50 ± 3.63 | 19.69 ± 9.94 | 16.53 ± 1.10 | 72.85 ± 60.37 |  |  | 
O=C1Nc2c(C(=O)O)ccnc2N(C2CC2)c2ncccc21 [4-CANVP, nevirapine 4-carboxylic acid] |  |  |  |  |  | 144.90 ± 22.31 |  | 
Cc1ccnc2c1NC(=O)c1cc(O)cnc1N2C1CC1 [8-OHNVP] | low plasma level |  |  |  |  |  |  | 
O=C1Nc2c(CO)ccnc2N(C2CC2)c2ncccc21 [12-OHNVP] | major metabolites | 31.38 ± 10.59 | 275.25 ± 126.07 | 157.16 ± 7.06 | 385.38 ± 346.21 |  | 0.21 | 1.3
